The source of these data is ChEMBL document CHEMBL5465560, “Selectivity Literature for EUbOPEN Chemogenomic Library” (2024).

Structures are written as SMILES.

The target of test [1] is Glycogen synthase kinase-3 beta (Homo sapiens, UniProt P49841). The test is described as follows: Selectivity interaction (Kinase panel (Z-LYTE Assay)) EUB0001632a GSK3B. The settings on record: at 10 µM.
For test [2], the target named is Calcium/calmodulin-dependent protein kinase type 1G (Homo sapiens) (UniProt Q96NX5). The test is described as follows: Selectivity interaction (KinomeScan (DiscoverX)) EUB0000607a CAMK1G. The settings on record: at 10 µM.
In test [3] the target is Serine/threonine-protein kinase 32B (Homo sapiens) (UniProt Q9NY57). The test can be described thus: Selectivity interaction (KinomeScan (DiscoverX)) EUB0000607a STK32B. As to conditions: at 10 µM.
Serine/threonine-protein kinase 32B (Homo sapiens), sequence (Q9NY57 whole entry): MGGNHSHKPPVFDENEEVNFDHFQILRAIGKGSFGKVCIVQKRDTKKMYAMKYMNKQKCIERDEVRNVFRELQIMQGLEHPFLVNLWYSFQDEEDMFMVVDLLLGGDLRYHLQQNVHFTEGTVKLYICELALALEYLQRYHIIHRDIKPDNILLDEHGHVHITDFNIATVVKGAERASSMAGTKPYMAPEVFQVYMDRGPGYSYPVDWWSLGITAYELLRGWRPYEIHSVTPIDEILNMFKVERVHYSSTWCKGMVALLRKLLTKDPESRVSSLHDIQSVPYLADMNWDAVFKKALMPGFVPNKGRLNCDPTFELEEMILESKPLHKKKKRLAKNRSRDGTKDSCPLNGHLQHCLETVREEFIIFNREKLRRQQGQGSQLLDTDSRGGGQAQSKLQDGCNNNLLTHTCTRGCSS
Test [4] addresses Serine/threonine-protein kinase 38 (Homo sapiens) (UniProt Q15208). The test is described as follows: Selectivity interaction (KinomeScan (DiscoverX)) EUB0000666a STK38. As to conditions: at 10 µM.
Test [5] has as its target Non-receptor tyrosine-protein kinase TYK2 (Homo sapiens, UniProt P29597). The test is described as follows: Selectivity interaction (KinomeScan (DiscoverX)) EUB0000666a TYK2. As to conditions: at 10 µM.
Test [6] concerns the target Serine/threonine-protein kinase tousled-like 2 (Homo sapiens) (UniProt Q86UE8). The test can be described thus: Selectivity interaction (KinomeScan (DiscoverX)) EUB0000229b TLK2. As to conditions: at 10 µM.
For test [7], the target named is Mitogen-activated protein kinase 6 (Homo sapiens) (UniProt Q16659). The test is described as follows: Selectivity interaction (KinomeScan (DiscoverX)) EUB0000655a MAPK6. As to conditions: at 10 µM.
Mitogen-activated protein kinase 6 (Homo sapiens), sequence (Q16659 whole entry): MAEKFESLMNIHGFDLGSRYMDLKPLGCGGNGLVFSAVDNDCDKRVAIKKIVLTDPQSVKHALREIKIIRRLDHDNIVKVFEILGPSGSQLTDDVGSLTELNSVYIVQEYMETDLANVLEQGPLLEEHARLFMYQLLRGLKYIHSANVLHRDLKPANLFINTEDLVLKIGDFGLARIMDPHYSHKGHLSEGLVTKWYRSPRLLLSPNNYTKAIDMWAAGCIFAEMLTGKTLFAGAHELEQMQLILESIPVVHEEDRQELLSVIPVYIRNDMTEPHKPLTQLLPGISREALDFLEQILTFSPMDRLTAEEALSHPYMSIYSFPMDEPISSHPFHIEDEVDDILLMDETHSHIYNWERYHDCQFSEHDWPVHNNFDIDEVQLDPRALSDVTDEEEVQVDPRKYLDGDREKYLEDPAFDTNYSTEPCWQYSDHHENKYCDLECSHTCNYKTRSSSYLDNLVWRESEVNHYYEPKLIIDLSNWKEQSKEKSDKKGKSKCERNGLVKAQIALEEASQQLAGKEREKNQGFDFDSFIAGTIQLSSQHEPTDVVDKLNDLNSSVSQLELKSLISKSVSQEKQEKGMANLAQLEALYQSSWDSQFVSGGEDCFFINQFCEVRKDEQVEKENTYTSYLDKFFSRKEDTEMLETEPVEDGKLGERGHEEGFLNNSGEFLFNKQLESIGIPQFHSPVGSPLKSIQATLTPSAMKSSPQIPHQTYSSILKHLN
The target in test [8] is T1, Tyrosine-protein kinase TXK (Homo sapiens) (UniProt P42681).
T1 sequence (whole entry): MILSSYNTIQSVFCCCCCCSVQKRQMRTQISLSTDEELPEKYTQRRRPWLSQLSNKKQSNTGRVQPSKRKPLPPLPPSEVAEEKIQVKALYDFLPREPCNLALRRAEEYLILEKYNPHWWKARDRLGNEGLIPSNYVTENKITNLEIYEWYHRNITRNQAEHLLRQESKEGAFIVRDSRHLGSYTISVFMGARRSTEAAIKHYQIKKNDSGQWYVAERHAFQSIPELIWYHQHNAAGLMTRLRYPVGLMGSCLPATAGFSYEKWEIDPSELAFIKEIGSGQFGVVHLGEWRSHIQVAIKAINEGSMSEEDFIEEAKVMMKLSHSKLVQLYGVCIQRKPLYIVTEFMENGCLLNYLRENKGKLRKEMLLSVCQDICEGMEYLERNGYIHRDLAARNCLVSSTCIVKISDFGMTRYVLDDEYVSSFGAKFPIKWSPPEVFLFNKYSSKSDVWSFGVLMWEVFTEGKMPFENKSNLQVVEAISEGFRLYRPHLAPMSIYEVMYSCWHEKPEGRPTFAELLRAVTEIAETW
The test can be described thus: Selectivity interaction (KinomeScan (DiscoverX)) EUB0000655a TXK. The settings on record: at 10 µM.

The target of test [9] is Calcium/calmodulin-dependent protein kinase kinase 2 (Homo sapiens) (UniProt Q96RR4). The test can be described thus: Selectivity interaction (ActivX KiNativ screen (ex vivo kinase selectivity in human PBMCs)) EUB0001619a CAMKK2. In kind it is cell-based. As to conditions: PBMC, at 1 µM.
The target of test [10] is Tyrosine-protein kinase receptor UFO (Homo sapiens) (UniProt P30530). The test is described as follows: Selectivity interaction (KinomeScan (DiscoverX)) EUB0001049a AXL. As to conditions: at 1 µM.
Tyrosine-protein kinase receptor UFO (Homo sapiens), sequence (P30530 whole entry): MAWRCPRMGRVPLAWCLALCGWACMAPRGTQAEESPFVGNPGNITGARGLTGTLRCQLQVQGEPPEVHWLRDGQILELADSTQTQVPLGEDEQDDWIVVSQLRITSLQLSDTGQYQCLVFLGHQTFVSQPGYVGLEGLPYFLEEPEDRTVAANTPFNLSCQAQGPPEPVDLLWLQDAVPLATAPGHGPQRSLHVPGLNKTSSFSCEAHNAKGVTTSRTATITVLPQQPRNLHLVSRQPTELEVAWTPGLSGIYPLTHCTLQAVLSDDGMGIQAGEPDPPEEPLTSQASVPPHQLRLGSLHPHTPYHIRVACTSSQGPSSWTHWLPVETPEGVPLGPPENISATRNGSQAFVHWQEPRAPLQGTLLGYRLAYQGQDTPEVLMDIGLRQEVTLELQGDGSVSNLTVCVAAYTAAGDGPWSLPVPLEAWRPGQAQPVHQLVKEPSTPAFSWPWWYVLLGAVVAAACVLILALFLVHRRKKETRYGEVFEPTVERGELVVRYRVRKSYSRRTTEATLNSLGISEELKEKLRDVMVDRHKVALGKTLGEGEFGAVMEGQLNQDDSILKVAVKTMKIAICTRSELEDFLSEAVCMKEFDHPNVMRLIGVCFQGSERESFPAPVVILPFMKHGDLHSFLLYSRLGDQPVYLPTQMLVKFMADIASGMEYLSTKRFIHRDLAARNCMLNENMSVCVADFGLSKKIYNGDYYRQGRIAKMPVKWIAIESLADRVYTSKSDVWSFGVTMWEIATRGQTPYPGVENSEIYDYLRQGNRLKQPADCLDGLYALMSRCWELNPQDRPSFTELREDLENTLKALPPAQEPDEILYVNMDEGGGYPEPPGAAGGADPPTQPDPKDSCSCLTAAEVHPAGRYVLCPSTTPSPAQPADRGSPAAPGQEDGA
In test [11] the target is T2, Tyrosine-protein kinase JAK3 (Homo sapiens) (UniProt P52333).
T2 sequence (whole entry): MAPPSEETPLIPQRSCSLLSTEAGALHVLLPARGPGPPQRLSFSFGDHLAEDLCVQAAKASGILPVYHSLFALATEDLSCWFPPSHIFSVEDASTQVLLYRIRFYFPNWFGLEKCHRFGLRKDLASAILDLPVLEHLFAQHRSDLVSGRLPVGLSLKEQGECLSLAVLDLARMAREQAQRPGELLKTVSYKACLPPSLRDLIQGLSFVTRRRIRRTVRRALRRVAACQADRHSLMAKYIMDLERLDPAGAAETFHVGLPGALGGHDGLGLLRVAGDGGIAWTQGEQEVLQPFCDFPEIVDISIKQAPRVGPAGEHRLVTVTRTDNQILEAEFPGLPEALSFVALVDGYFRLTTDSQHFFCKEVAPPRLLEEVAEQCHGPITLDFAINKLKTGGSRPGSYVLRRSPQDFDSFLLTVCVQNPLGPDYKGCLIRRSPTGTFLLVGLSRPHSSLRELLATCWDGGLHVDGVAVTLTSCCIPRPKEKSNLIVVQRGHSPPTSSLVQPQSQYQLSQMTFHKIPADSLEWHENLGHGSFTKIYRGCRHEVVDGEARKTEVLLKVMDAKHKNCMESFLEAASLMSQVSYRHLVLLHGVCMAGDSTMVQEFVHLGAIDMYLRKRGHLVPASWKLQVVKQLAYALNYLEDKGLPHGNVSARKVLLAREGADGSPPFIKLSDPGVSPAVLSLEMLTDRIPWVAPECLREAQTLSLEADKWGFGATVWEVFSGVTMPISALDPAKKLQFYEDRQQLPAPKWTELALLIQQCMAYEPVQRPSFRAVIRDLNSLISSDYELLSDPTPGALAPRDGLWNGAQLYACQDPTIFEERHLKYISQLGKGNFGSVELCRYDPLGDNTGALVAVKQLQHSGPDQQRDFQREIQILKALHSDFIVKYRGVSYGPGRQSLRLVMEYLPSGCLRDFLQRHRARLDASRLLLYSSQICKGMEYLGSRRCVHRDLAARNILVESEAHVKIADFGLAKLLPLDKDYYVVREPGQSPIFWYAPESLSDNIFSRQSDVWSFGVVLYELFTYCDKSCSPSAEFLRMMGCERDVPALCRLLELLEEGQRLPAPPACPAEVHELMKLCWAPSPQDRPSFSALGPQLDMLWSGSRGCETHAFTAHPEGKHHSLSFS
The test can be described thus: Selectivity interaction (KinomeScan (DiscoverX)) EUB0001049a JAK3. The settings on record: at 1 µM.

Test [12] concerns the target Endothelin-1 receptor (Homo sapiens) (UniProt P25101). The test can be described thus: Selectivity interaction (Eurofins CEREP Diversity Profile (receptors and ion channels)) EUB0000279b EDNRA. The settings on record: at 10 µM.
The target in test [13] is DNA (cytosine-5)-methyltransferase 3B (Homo sapiens) (UniProt Q9UBC3). The test can be described thus: Selectivity interaction (Transferase panel (protein, RNA, and DNA methyltransferases. and EP300 (acetyltransferase))) EUB0000270b DNMT3B.
Test [14] addresses Dual specificity mitogen-activated protein kinase kinase 1 (Homo sapiens, UniProt Q02750). The test can be described thus: Selectivity interaction (Kinase panel (DSF assay)) EUB0001559a MAP2K1. (DSF heats the sample and reads unfolding from a dye or from intrinsic fluorescence.)
Test [15] has as its target Activin receptor type-2A (Homo sapiens) (UniProt P27037). The test is described as follows: Selectivity interaction (KinomeScan (DiscoverX)) EUB0000045b ACVR2A.
For test [16], the target named is Tyrosine-protein kinase HCK (Homo sapiens) (UniProt P08631). The test can be described thus: Selectivity interaction (KinomeScan (DiscoverX)) EUB0000045b HCK.
Tyrosine-protein kinase HCK (Homo sapiens), sequence (P08631 2-526 limits assumed): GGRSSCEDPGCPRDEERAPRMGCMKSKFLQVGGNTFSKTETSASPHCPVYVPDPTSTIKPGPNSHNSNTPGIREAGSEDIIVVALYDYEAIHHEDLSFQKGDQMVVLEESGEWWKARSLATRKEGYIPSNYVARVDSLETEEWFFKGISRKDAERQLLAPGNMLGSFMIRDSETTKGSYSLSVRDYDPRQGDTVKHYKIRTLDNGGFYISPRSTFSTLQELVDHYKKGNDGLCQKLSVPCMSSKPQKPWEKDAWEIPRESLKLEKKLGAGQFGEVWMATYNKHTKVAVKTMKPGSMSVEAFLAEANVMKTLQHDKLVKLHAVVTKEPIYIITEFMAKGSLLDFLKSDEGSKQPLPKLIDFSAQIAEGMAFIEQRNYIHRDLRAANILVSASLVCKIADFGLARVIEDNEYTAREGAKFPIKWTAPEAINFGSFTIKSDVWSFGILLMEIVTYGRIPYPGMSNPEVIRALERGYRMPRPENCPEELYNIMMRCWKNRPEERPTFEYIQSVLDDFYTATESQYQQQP
In test [17] the target is Serine/threonine-protein kinase pim-2 (Homo sapiens, UniProt Q9P1W9). The test is described as follows: Selectivity interaction (KinomeScan (DiscoverX)) EUB0000595a PIM2. As to conditions: at 10 µM.
Serine/threonine-protein kinase pim-2, sequence (Q9P1W9 whole entry, looked up): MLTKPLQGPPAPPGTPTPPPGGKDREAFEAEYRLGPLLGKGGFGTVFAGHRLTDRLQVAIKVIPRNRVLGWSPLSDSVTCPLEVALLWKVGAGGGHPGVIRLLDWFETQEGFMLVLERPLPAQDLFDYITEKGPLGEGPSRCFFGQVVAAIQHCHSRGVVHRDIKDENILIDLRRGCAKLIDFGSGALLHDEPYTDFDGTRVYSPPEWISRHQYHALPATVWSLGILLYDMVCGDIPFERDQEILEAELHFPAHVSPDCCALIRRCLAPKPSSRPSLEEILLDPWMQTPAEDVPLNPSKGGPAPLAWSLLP

Activin receptor type-2A (Homo sapiens), sequence (P27037 whole entry): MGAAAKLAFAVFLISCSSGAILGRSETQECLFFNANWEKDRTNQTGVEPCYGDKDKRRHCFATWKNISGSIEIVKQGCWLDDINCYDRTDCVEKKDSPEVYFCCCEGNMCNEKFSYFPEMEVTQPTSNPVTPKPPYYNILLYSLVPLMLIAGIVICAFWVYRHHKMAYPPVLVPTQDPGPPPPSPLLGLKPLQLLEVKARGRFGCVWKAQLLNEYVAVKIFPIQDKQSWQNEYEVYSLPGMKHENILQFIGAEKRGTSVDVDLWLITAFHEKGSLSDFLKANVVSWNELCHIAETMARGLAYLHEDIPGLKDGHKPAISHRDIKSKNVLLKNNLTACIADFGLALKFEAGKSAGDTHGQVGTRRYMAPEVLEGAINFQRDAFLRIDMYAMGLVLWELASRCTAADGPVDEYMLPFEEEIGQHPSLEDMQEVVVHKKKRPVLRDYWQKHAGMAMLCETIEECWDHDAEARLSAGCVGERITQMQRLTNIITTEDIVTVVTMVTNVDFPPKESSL
Serine/threonine-protein kinase 38 (Homo sapiens), sequence (Q15208 2-465 limits assumed): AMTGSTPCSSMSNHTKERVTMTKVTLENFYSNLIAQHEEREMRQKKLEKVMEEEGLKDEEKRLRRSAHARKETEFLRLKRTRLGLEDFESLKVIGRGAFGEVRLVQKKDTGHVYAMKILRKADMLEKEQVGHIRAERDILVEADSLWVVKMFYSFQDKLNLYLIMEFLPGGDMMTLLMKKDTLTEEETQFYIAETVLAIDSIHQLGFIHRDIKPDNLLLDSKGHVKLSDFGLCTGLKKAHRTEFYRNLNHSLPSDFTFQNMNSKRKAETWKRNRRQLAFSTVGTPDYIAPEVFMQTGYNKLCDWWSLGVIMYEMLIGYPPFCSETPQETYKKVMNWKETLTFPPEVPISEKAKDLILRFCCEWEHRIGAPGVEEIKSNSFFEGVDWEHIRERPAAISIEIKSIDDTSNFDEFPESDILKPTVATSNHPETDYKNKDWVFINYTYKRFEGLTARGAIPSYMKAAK
Serine/threonine-protein kinase tousled-like 2 (Homo sapiens), sequence (Q86UE8 whole entry, looked up): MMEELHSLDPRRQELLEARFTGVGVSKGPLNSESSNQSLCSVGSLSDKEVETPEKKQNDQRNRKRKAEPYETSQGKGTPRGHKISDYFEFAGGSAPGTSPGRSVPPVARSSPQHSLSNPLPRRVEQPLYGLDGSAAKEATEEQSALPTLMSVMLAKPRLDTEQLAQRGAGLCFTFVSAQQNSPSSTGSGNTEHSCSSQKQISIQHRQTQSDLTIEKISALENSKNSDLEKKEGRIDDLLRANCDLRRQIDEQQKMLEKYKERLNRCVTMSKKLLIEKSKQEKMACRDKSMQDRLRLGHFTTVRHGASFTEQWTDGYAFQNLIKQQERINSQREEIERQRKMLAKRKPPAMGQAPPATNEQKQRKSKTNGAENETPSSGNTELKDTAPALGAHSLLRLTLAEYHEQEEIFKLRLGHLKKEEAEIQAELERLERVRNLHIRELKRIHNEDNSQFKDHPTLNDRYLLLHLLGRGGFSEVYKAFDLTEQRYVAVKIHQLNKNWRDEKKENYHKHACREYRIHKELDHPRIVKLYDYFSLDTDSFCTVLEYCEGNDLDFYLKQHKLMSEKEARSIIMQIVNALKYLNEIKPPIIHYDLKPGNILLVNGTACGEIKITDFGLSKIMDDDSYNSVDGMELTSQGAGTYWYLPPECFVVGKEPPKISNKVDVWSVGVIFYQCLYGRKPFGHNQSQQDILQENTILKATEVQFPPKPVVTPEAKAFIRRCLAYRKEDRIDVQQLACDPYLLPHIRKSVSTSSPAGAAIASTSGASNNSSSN
Dual specificity mitogen-activated protein kinase kinase 1, sequence (Q02750 whole entry): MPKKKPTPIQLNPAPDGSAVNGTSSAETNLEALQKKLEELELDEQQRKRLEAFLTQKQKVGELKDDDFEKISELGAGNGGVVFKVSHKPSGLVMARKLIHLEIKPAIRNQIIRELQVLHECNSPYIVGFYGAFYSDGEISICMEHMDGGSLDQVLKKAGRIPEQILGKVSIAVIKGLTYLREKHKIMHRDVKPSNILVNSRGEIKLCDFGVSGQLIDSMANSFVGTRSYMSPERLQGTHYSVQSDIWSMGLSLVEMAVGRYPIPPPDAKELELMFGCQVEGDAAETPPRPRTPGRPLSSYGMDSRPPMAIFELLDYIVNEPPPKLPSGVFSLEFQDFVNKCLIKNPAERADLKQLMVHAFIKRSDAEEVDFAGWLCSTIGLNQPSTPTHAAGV

`Cn1cc(-n2cnc3c(NCc4nc5cc(Cl)c(Cl)cc5[nH]4)nc(N4CCOCC4)nc32)cn1` had a % of control in test [1] of 89.1%. `CNC(=O)Nc1ccc(-c2nc(N3CC4CCC(C3)O4)c3cnn(C4CCC5(CC4)OCCO5)c3n2)cc1`: the % of control in test [2] amounted to 100%; in test [3], 86%. Turning to `O=C(NOC[C@H](O)CO)c1ccc(F)c(F)c1Nc1ccc(I)cc1F`, the % of control in test [4] and in test [5] was 100% throughout. `COc1cc(N(C)c2ccnc3ccc(C(F)(F)F)cc23)cc(OC)c1OC` had a % binding in test [6] of 92%. Take `CN(C)CCOc1ccc(-c2nc(-c3ccncc3)c(-c3ccc4c(c3)CC/C4=N\O)[nH]2)cc1`: the % of control in [7] amounted to 92%; in [8], 97%. Turning to `N#Cc1cccc(-c2c[nH]c3ncnc(N4CCOCC4)c23)c1`, the % of inhibition in [9] was determined as 49%.

As for `COc1cc(Nc2nc(C)cc(-c3cnn4nc(OC)ccc34)n2)cc(C(F)(F)F)c1`, the % of control was 100% in test [10] and 93% in test [11]. `CC(=O)c1cc(-c2ccccc2OCC2CC2)c2ncccn12` gave a % of control in test [12] of 85%.

`Cc1cc(CN)cc(C)c1-c1ncn(C)c1-c1cncn1C`: the % activity is more than 90% in test [13] (at 1 µM) and more than 80% in test [13] (at 10 µM). As for `CN(C(=O)c1cnn2cccnc12)c1cc2c(cc1N1CCOCC1)C(=O)N(C[C@@H](F)C(C)(C)O)C2`, in test [14], the dTM is -0.8 K. Consider `C=CC(=O)Nc1cc(-n2c(=O)ccc3cnc4ccc(-c5ccc(NS(C)(=O)=O)cc5)cc4c32)ccc1C`, for which the % of control amounted to 94% in [15] (at 1 µM), 88% in [15] (at 10 µM), 97% in test [16] (at 1 µM) and 100% in test [16] (at 10 µM).

For the compound `COCC(=O)NC/C=C/c1ccc2ncnc(Nc3ccc(Oc4ccc(C)nc4)c(C)c3)c2c1` [CP-724714], the % of control in [17] was determined as 100%.
